Legend:
hERG = target: T1, hERG (Homo sapiens, UniProt Q12809); test: hERG Flux (Tl+ flux, FLIPR); assay type: cell-based; details: HEK293 cells expressing hERG
T1 construct: expressed in transfected cells; host or cells: HEK293
Description: HEK293 cells stably-expressing hERG channels were grown (37° C., 5% CO2) in Dulbecco's Modified Eagle's Media supplemented with 10% Sigma fetal bovine serum, non-essential amino acids, 2 mM L-glutamine and 500 μg/ml G418, at incubator. Cell dissociation buffer was used to extract the cells from flasks, which were then plated into 384-well CORNING® poly-D-lysine coated black/clear plates at a density of 2×10^4 cells per well (20 μl) in 10% serum media, and incubated for 15-24 hours at 37° C. in a 5% CO2 incubator until a confluent monolayer of cells was obtained. […]
The test compound was diluted to 10 mM DMSO in 60 μl. […] Assay-ready plates were generated by stamping 2.5 μl from the DMSO serially diluted plate, which was prepared on the Velocity 11 BIOCEL®. Aqueous plates were created by adding 48 μl of EP buffer and then were diluted 30-45 minutes before the assay was read on the FLIPR®. […] Assay-ready aqueous plates were prepared and diluted on a CyBio liquid handler.
Cells loaded with dye were read on the FLIPR®384 (Molecular Devices, Sunnyvale, Calif.), which excites the dye using the 488 nm line of an argon laser. […]
The dynamic range of the assay was determined from blanks and totals wells. […] Data were analyzed by fitting maximum amplitudes of change in fluorescence for Tl^+ flux for a given condition of test compound.

CCR-2 [1] = target: T2, CCR-2 (Homo sapiens, UniProt P41597); test: CCR-2 GTP-γS exchange, HT1080 membranes; assay type: biochemical; details: 1 nM MCP-1
T2 sequence (P41597 whole entry): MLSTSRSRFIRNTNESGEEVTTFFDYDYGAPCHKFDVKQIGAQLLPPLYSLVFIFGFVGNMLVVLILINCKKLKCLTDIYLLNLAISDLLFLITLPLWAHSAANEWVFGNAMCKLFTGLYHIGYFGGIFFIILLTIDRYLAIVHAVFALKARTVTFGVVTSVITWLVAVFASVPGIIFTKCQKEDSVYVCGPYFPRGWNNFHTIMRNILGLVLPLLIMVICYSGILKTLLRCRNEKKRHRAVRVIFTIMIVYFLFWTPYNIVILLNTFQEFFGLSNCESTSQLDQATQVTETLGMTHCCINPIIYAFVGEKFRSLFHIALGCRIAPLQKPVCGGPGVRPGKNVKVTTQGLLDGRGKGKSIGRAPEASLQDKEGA
Description: Each reaction (200 μL) contained 20 mM Na-HEPES, 10 mM MgCl2, 50 mM NaCl, 0.1% BSA (Sigma), 1% DMSO, and 10 μM GDP (pH 7.4). […] Reactions were incubated for 90 minutes hour at room temperature and [^35S]-GTPγS/Gαi complexes were collected on a Millipore MAFC 96 well filter plate. […] Data were analyzed using the ligand binding software from Graphpad Prism 4.

CCR-2 [2] = target: T2, CCR-2; test: CCR-2 whole blood integrin (CD11b) upregulation; assay type: cell-based
Description: A CCR-2-dependent CD11b upregulation assay was established with human whole blood. Whole blood (100 μl) was pre-incubated with a concentration range of Example 1 at 37° C. for 10 minutes. […] The reactions were incubated for 30 minutes at 37° C. […] The samples were then incubated for 30 minutes on ice in the dark. […] Data acquisition and analysis were performed using CellQuestPro software. A sequential gating strategy was used to analyze the CD14^high CD11b^+ monocyte population.

CCR-5 = target: T3, CCR-5 (Homo sapiens, UniProt P51681); test: CCR-5 whole blood CD11b upregulation; assay type: cell-based; details: MIP-1β 50 nM
T3 construct: human peripheral T cells was used as a source of CCR-5; endogenous in cells; host or cells: human peripheral T cells from donors pre-screened for high CCR-5 expression
T3 sequence (P51681 whole entry): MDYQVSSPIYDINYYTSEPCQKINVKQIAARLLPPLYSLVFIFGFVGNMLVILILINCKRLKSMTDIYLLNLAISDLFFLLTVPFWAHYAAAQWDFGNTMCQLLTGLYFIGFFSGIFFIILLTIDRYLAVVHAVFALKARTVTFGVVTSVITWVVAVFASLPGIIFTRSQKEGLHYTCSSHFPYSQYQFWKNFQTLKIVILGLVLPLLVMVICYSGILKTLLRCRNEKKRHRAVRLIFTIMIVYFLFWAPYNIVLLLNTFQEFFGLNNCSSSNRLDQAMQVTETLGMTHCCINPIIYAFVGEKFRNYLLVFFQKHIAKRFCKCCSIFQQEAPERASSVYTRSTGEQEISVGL
Description: Similar procedure to the CCR-2 whole blood CD11b upregulation procedure set forth above was adopted except that MIP-1β (50 nM) was used as the ligand.

T1 sequence (Q12809 whole entry): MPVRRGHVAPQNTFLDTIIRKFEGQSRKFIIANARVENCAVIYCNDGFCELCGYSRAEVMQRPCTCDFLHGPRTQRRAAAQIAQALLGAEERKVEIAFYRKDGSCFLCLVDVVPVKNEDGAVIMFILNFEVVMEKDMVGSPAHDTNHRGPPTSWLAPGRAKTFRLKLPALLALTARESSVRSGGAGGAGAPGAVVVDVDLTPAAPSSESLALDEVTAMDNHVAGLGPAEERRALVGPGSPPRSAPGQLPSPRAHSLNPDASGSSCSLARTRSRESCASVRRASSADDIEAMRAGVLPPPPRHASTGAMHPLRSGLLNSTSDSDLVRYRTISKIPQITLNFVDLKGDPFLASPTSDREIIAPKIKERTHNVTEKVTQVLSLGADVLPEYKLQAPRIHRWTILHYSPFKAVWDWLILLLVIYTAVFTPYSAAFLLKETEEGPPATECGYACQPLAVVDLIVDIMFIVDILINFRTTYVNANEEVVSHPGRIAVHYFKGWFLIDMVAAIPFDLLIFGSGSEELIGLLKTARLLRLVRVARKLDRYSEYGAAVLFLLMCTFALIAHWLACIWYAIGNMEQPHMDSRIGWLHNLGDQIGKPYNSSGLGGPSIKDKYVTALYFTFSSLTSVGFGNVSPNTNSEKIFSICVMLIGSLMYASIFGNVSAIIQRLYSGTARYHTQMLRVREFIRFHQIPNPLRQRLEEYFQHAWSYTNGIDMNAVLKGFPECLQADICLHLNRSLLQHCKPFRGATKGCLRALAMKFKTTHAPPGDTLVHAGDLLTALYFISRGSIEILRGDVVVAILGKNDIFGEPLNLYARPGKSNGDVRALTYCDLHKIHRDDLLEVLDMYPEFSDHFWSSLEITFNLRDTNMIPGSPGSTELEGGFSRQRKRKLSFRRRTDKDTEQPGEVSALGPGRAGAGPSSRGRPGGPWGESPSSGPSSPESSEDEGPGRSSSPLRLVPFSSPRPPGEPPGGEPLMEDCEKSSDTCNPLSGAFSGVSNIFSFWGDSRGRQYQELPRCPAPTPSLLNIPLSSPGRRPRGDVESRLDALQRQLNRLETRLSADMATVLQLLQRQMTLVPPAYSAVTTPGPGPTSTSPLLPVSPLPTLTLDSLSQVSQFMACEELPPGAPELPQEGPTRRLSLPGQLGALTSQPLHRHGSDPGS

CC(=O)N[C@@H]1C[C@H](NC(C)(C)C)CC[C@@H]1N1CC[C@H](Nc2ncnc3cc(C(C)(C)C)nn23)C1=O [Example 1, N-((1R,2 S,5R)-5-(tert-Butylamino)-2-((S)-3-(7-tert-butylpyrazolo[1,5-a][1,3,5]triazin-4-ylamino)-2-oxopyrrolidin-1-yl)cyclohexyl)acetamide]
IC50 (hERG): > 80000 nM
IC50 (CCR-2 [1]): 3.5 ± 1.9 nM
activity against CCR-2 versus CCR-5 (Table 5) (CCR-2 [2]; comparison of CCR-2 and CCR-5 CD11b IC50): equipotent against CCR-2 and CCR-5
IC50 (CCR-2 [2]; human whole blood, MCP-1 10 nM): 4.8 nM
IC50 (CCR-5): 5.7 nM
